Data from US4201843A, “Process for manufacturing tylosin derivatives” (Sanraku Ocean Co., Ltd., priority 1975, dated 1980).
Converted amounts (≈) assume the structure as drawn.

Tests used:
[1] = system: Bacillus cereus ATCC 9634; test: minimum growth-inhibitory concentration; type: cell-based; details: ATCC9634
Experimental: (§1) The antimicrobial spectra of new tylosin derivatives of this invention are shown in Table 2 by listing the minimum growth inhibitory concentrations (MIC, mcg/ml). […] The toxicity of these compounds was tested in animals by intravenous administration, and the LD50 values in mice are more than 400 mg/kg with all compounds. In therapeutical experiments with mice manually infected by Staphilococcus aureus SMITH, the ED50 values were less than 50 mg/kg (p.o.) with all said tylosin derivatives.

[2] = system: Bacillus megaterium NRRL B-938; test: minimum growth-inhibitory concentration; type: cell-based; details: Priestia megaterium, NRRLB938
Experimental: as §1

[3] = system: Bacillus subtilis ATCC 6633; test: minimum growth-inhibitory concentration; type: cell-based; details: ATCC6633
Experimental: as §1

[4] = system: Candida albicans IAM 4905; test: minimum growth-inhibitory concentration; type: cell-based; details: IAM4905
Experimental: as §1

[5] = system: Candida tropicalis IAM 4924; test: minimum growth-inhibitory concentration; type: cell-based; details: IAM4924
Experimental: as §1

[6] = system: Corynebacterium bovis 1810; test: minimum growth-inhibitory concentration; type: cell-based
Experimental: as §1

[7] = system: Escherichia coli (National Institute of Health); test: minimum growth-inhibitory concentration; type: cell-based
Experimental: as §1

[8] = system: Micrococcus flavus I; test: minimum growth-inhibitory concentration; type: cell-based
Experimental: as §1

[9] = system: Mycobacterium smegmatis ATCC 607; test: minimum growth-inhibitory concentration; type: cell-based; details: Mycolicibacterium smegmatis, ATCC607
Experimental: as §1

[10] = system: Proteus morganii (The Institute for Infectious Diseases); test: minimum growth-inhibitory concentration; type: cell-based; details: Morganella morganii
Experimental: as §1

[11] = system: Pseudomonas fluorescens NIHJB 254; test: minimum growth-inhibitory concentration; type: cell-based; details: NIHJB254
Experimental: as §1

[12] = system: Sarcina lutea ATCC 9341; test: minimum growth-inhibitory concentration; type: cell-based; details: Micrococcus luteus, ATCC9341
Experimental: as §1

[13] = system: Staphylococcus aureus FAD209P; test: minimum growth-inhibitory concentration; type: cell-based; details: read-out: minimum growth-inhibitory concentration (MIC)
Experimental: as §1

[14] = system: Staphylococcus aureus SMITH; test: minimum growth-inhibitory concentration; type: cell-based
Experimental: as §1

[15] = system: Staphylococcus aureus MS 8710; test: minimum growth-inhibitory concentration; type: cell-based; details: MS8710; Staphylococcus aureus MS 8710, drug resistant strain
Experimental: as §1
(§2) The strains marked * in Table 2 are the drug resistant strains isolated from patients, namely, Staphilococcus aureus MS-9610 which is resistant to penicillin, tetracycline, erythromycin, leucomycin, spiramycin, josamycin and tylosin, Staphilococcus aureus MS-8710 which is resistant to penicillin, tetracycline, erythromycin, leucomycin and tylosin, and Streptococcus pyogenes MH 771 which is resistant to erythromycin, oleandomycin, leucomycin and tylosin.

[16] = system: Staphylococcus aureus MS 9610; test: minimum growth-inhibitory concentration; type: cell-based; details: MS9610; Staphylococcus aureus MS 9610, drug resistant strain
Experimental: as §1, §2

[17] = system: Streptococcus pyogenes MH 771; test: minimum growth-inhibitory concentration; type: cell-based; details: MH771, read-out: minimum growth-inhibitory concentration (MIC)
Experimental: as §1
(broth-dilution method)
as §2

[18] = system: drug resistant strains; test: antimicrobial activity against drug resistant strains; type: cell-based; details: strains marked * in Table 2
Source text: One of the particular advantages of the said tylosin derivatives over known macrolide antibiotics is their distinct antimicrobial activity against drug resistant bacteria.
as §2

[19] = solubility in solvents; type: physicochemical
Source text: (§3) The physicochemical analysis and deterimations included elementary analysis, melting point, specific rotatory power, ultraviolet spectrum, infrared spectrum, magnetic nuclear resonance (NMR), C^13 -NMR, mass spectrum (chemical ionization), the release of organic acids under alkaline conditions (gas chromatographical detection), solubility in solvents, color development reaction, basicity of the compounds, appearance and crystalline form. The molecular weight was obtained as QM^+ (Quasi Molecular ion) by chemically-ionized mass spectra analysis.
(§4) (2) the crystals obtained from the solvents in (13) were used for the tests in (1)-(12), and […]

[20] = basicity of the compounds (alkalinity); type: physicochemical
Source text: as §3, §4

[21] = set-up: species or system mice; details: mouse, in vivo, po, 100 mg/kg
Experimental: Another phase of advantages of the said tylosin derivatives is their high blood levels in animals. When each of these compounds is orally administered to mice in a dose of 100 mg/kg, their concentrations in blood were measured to be 5-20 mcg/ml, a substantially high value compared to that of tylosin (<1 mcg/ml). […] Their concentrations in blood one hour after administration reached up to 15-20 mcg/ml.

[22] = electrometric determination in dimethyl formamide-H2O=2:1 by volume; Japanese Patent (Kokoku) Showa No. 36-22649; cited from earlier work

CCCC(=O)OC1C(C)OC(OC2C(C)OC(OC3C(CC=O)CC(C)C(=O)/C=C/C(C)=C/C(COC4OC(C)C(O)C(OC)C4OC)C(CC)OC(=O)CC(O)C3C)C(O)C2N(C)C)CC1(C)O (stereo not shown) [4"-n-butyryltylosin]
MIC [1]: 0.98 µg/mL (≈ 0.994 µM) | MIC [2]: 0.49 µg/mL (≈ 0.497 µM) | MIC [3]: 0.49 µg/mL (≈ 0.497 µM) | MIC [4]: > 250 µg/mL | MIC [5]: > 250 µg/mL | MIC [6]: 0.98 µg/mL (≈ 0.994 µM) | MIC [7]: 125 µg/mL (≈ 127 µM) | MIC [8]: 0.49 µg/mL (≈ 0.497 µM) | MIC [9]: 3.91 µg/mL (≈ 3.96 µM) | MIC [10]: > 250 µg/mL | MIC [11]: > 250 µg/mL | MIC [12]: 0.25 µg/mL (≈ 0.253 µM) | MIC [13]: 0.25 µg/mL (≈ 0.253 µM) | MIC [14]: 0.25 µg/mL (≈ 0.253 µM) | MIC [15]: 62.5 µg/mL (≈ 63.4 µM) | MIC [16]: > 250 µg/mL | MIC [17]: 15.6 µg/mL (≈ 15.8 µM) | antimicrobial activity against a wide range of drug resistant strains [18]: particularly strong antimicrobial activity | solubility in acidic water ([19]; acidic water): soluble | solubility in alkaline water ([19]; alkaline water): hardly soluble | solubility in lower alcohols, ketones, ethers, esters, benzene and toluene ([19]; e.g. ethanol, acetone, ethyl ether, ethyl acetate, benzene, toluene): soluble | solubility in n-hexane and petroleum ether ([19]; n-hexane and petroleum ether): hardly soluble | solubility in neutral water ([19]; neutral water): slightly soluble | alkalinity [20]: alkaline compounds

CC[C@H]1OC(=O)C[C@@H](O)[C@H](C)[C@@H](O[C@@H]2O[C@H](C)[C@@H](O[C@H]3C[C@@](C)(O)[C@@H](O)[C@H](C)O3)[C@H](N(C)C)[C@H]2O)[C@@H](CC=O)C[C@@H](C)C(=O)/C=C/C(C)=C/[C@@H]1CO[C@@H]1O[C@H](C)[C@@H](O)[C@@H](OC)[C@H]1OC [tylosin]
MIC [1]: 0.49 µg/mL (≈ 0.535 µM) | MIC [2]: 0.25 µg/mL (≈ 0.273 µM) | MIC [3]: 0.49 µg/mL (≈ 0.535 µM) | MIC [4]: > 250 µg/mL | MIC [5]: > 250 µg/mL | MIC [6]: 0.5 µg/mL (≈ 0.546 µM) | MIC [7]: 250 µg/mL (≈ 273 µM) | MIC [8]: 0.12 µg/mL (≈ 0.131 µM) | MIC [9]: 7.81 µg/mL (≈ 8.53 µM) | MIC [10]: > 250 µg/mL | MIC [11]: > 250 µg/mL | MIC [12]: 0.12 µg/mL (≈ 0.131 µM) | MIC [13]: 0.49 µg/mL (≈ 0.535 µM) | MIC [14]: 0.25 µg/mL (≈ 0.273 µM) | MIC [15]: > 250 µg/mL | MIC [16]: > 250 µg/mL | MIC [17]: 250 µg/mL (≈ 273 µM) | concentration in blood [21]: < 1 µg/mL

tylosin acetyl ester
pk value [22]: about 5.1
